# Legend:
# Test in all cases: relative viability (nuclei count vs DMSO), 5 days (fraction); higher = more cells survive
# [1] = compound: CN(C)C[C@@H]1CCn2cc(c3ccccc32)C2=C(C(=O)NC2=O)c2cn(c3ccccc23)CCO1 [Ruboxistaurin] + Nc1ncn([C@H]2C[C@H](O)[C@@H](CO)O2)c(=O)n1 [Decitabine] (partner 2 µM)
# Method in brief: (§1)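 Lung cancer cell lines in 1536-well plates got either a single drug or a fixed anchor-drug dose together with five library-drug doses (not always all listed) in √10 steps, by pin tool, on the day after seeding. Nuclei were counted after 5 days, and relative viability is the treated-to-vehicle ratio of nuclei counts. Values are medians of duplicate plates.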
# [2] = compound: CN(C)C[C@@H]1CCn2cc(c3ccccc32)C2=C(C(=O)NC2=O)c2cn(c3ccccc23)CCO1 [Ruboxistaurin] + COc1cc2c(Oc3ccc(NC(=O)C4(C(=O)Nc5ccc(F)cc5)CC4)cc3F)ccnc2cc1OCCCN1CCOCC1 [Foretinib] (partner 0.25 µM)
# Method in brief: as §1
# [3] = compound: CN(C)C[C@@H]1CCn2cc(c3ccccc32)C2=C(C(=O)NC2=O)c2cn(c3ccccc23)CCO1 [Ruboxistaurin] + Cc1cc(Nc2cc(N3CCN(C)CC3)nc(Sc3ccc(NC(=O)C4CC4)cc3)n2)n[nH]1 [Tozasertib] (partner 0.1 µM)
# Method in brief: as §1
# [4] = compound: CN(C)C[C@@H]1CCn2cc(c3ccccc32)C2=C(C(=O)NC2=O)c2cn(c3ccccc23)CCO1 [Ruboxistaurin] + CC1(C)CCC(c2ccc(Cl)cc2)=C(CN2CCN(c3ccc(C(=O)NS(=O)(=O)c4ccc(N[C@H](CCN5CCOCC5)CSc5ccccc5)c(S(=O)(=O)C(F)(F)F)c4)cc3)CC2)C1 [Navitoclax] (partner 0.5 µM)
# Method in brief: as §1
# [5] = compound: CN(C)C[C@@H]1CCn2cc(c3ccccc32)C2=C(C(=O)NC2=O)c2cn(c3ccccc23)CCO1 [Ruboxistaurin] + Cc1nc(Nc2ncc(C(=O)Nc3c(C)cccc3Cl)s2)cc(N2CCN(CCO)CC2)n1 [Dasatinib] (partner 0.075 µM)
# Method in brief: as §1
cell line,measurement,setting,value
HCC-15,relative viability,[1]; first compound 0.08 µM,0.699
same,relative viability,[1]; first compound 0.8 µM,0.576
same,relative viability,[1]; first compound 2.53 µM,0.666
same,relative viability,[1]; first compound 8 µM,0.685
same,relative viability,[2]; first compound 0.08 µM,1.1
same,relative viability,[2]; first compound 0.8 µM,0.927
same,relative viability,[2]; first compound 2.53 µM,1.12
same,relative viability,[2]; first compound 8 µM,1.09
same,relative viability,[3]; first compound 0.08 µM,0.461
same,relative viability,[3]; first compound 0.8 µM,0.255
same,relative viability,[3]; first compound 2.53 µM,0.297
same,relative viability,[3]; first compound 8 µM,0.188
same,relative viability,[4]; first compound 0.08 µM,0.724
same,relative viability,[4]; first compound 0.8 µM,0.64
same,relative viability,[4]; first compound 2.53 µM,0.71
same,relative viability,[4]; first compound 8 µM,0.62
same,relative viability,[5]; first compound 0.08 µM,0.683
same,relative viability,[5]; first compound 0.8 µM,0.593
same,relative viability,[5]; first compound 2.53 µM,0.489
same,relative viability,[5]; first compound 8 µM,0.518
HCC-44,relative viability,[1]; first compound 0.08 µM,0.974
same,relative viability,[1]; first compound 0.8 µM,0.882
same,relative viability,[1]; first compound 2.53 µM,1.01
same,relative viability,[1]; first compound 8 µM,1.02
same,relative viability,[3]; first compound 0.08 µM,1.05
same,relative viability,[3]; first compound 0.8 µM,0.919
same,relative viability,[3]; first compound 2.53 µM,1.1
same,relative viability,[3]; first compound 8 µM,1.09
same,relative viability,[4]; first compound 0.08 µM,1.05
same,relative viability,[4]; first compound 0.8 µM,0.883
same,relative viability,[4]; first compound 2.53 µM,1.02
same,relative viability,[4]; first compound 8 µM,0.971
HCC-78,relative viability,[1]; first compound 0.08 µM,0.636
same,relative viability,[1]; first compound 0.8 µM,0.663
same,relative viability,[1]; first compound 2.53 µM,0.756
same,relative viability,[1]; first compound 8 µM,0.635
same,relative viability,[2]; first compound 0.08 µM,0.553
same,relative viability,[2]; first compound 0.8 µM,0.593
same,relative viability,[2]; first compound 2.53 µM,0.546
same,relative viability,[2]; first compound 8 µM,0.528
same,relative viability,[3]; first compound 0.08 µM,0.368
same,relative viability,[3]; first compound 0.8 µM,0.352
same,relative viability,[3]; first compound 2.53 µM,0.321
same,relative viability,[3]; first compound 8 µM,0.393
same,relative viability,[4]; first compound 0.08 µM,0.802
same,relative viability,[4]; first compound 0.8 µM,0.686
same,relative viability,[4]; first compound 2.53 µM,0.812
same,relative viability,[4]; first compound 8 µM,0.793
same,relative viability,[5]; first compound 0.08 µM,0.52
same,relative viability,[5]; first compound 0.8 µM,0.399
same,relative viability,[5]; first compound 2.53 µM,0.377
same,relative viability,[5]; first compound 8 µM,0.283
HCC-366,relative viability,[1]; first compound 0.08 µM,0.361
same,relative viability,[1]; first compound 0.8 µM,0.351
same,relative viability,[1]; first compound 2.53 µM,0.325
same,relative viability,[1]; first compound 8 µM,0.317
same,relative viability,[2]; first compound 0.08 µM,1.08
same,relative viability,[2]; first compound 0.8 µM,0.919
same,relative viability,[2]; first compound 2.53 µM,0.882
same,relative viability,[2]; first compound 8 µM,0.874
same,relative viability,[3]; first compound 0.08 µM,0.0941
same,relative viability,[3]; first compound 0.8 µM,0.0617
same,relative viability,[3]; first compound 2.53 µM,0.084
same,relative viability,[3]; first compound 8 µM,0.0522
same,relative viability,[4]; first compound 0.08 µM,1.05
same,relative viability,[4]; first compound 0.8 µM,0.81
same,relative viability,[4]; first compound 2.53 µM,1.16
same,relative viability,[4]; first compound 8 µM,0.995
same,relative viability,[5]; first compound 0.08 µM,0.564
same,relative viability,[5]; first compound 0.8 µM,0.526
same,relative viability,[5]; first compound 2.53 µM,0.624
same,relative viability,[5]; first compound 8 µM,0.52
HCC-827,relative viability,[1]; first compound 0.08 µM,0.349
same,relative viability,[1]; first compound 0.8 µM,0.344
same,relative viability,[1]; first compound 2.53 µM,0.376
same,relative viability,[1]; first compound 8 µM,0.319
same,relative viability,[2]; first compound 0.08 µM,1.17
same,relative viability,[2]; first compound 0.8 µM,1.03
same,relative viability,[2]; first compound 2.53 µM,1.03
same,relative viability,[2]; first compound 8 µM,1
same,relative viability,[3]; first compound 0.08 µM,0.43
same,relative viability,[3]; first compound 0.8 µM,0.393
same,relative viability,[3]; first compound 2.53 µM,0.423
same,relative viability,[3]; first compound 8 µM,0.423
same,relative viability,[4]; first compound 0.08 µM,1.05
same,relative viability,[4]; first compound 0.8 µM,1.05
same,relative viability,[4]; first compound 2.53 µM,1.01
same,relative viability,[4]; first compound 8 µM,1.04
same,relative viability,[5]; first compound 0.08 µM,0.36
same,relative viability,[5]; first compound 0.8 µM,0.241
same,relative viability,[5]; first compound 2.53 µM,0.327
same,relative viability,[5]; first compound 8 µM,0.278
HOP-62,relative viability,[1]; first compound 0.08 µM,0.21
same,relative viability,[1]; first compound 0.8 µM,0.242
same,relative viability,[1]; first compound 2.53 µM,0.251
same,relative viability,[1]; first compound 8 µM,0.268
same,relative viability,[2]; first compound 0.08 µM,1.13
same,relative viability,[2]; first compound 0.8 µM,1.07
same,relative viability,[2]; first compound 2.53 µM,1.13
same,relative viability,[2]; first compound 8 µM,1.22
same,relative viability,[3]; first compound 0.08 µM,0.362
same,relative viability,[3]; first compound 0.8 µM,0.299
same,relative viability,[3]; first compound 2.53 µM,0.352
same,relative viability,[3]; first compound 8 µM,0.424
same,relative viability,[4]; first compound 0.08 µM,1.15
same,relative viability,[4]; first compound 0.8 µM,1
same,relative viability,[4]; first compound 2.53 µM,1.12
same,relative viability,[4]; first compound 8 µM,1.35
same,relative viability,[5]; first compound 0.08 µM,0.746
same,relative viability,[5]; first compound 0.8 µM,0.628
same,relative viability,[5]; first compound 2.53 µM,0.634
same,relative viability,[5]; first compound 8 µM,0.673
IA-LM,relative viability,[2]; first compound 0.08 µM,1.14
same,relative viability,[2]; first compound 0.8 µM,1.11
same,relative viability,[2]; first compound 2.53 µM,1.31
same,relative viability,[2]; first compound 8 µM,1.38
same,relative viability,[4]; first compound 0.08 µM,0.852
same,relative viability,[4]; first compound 0.8 µM,0.722
same,relative viability,[4]; first compound 2.53 µM,0.862
same,relative viability,[4]; first compound 8 µM,0.987
LCLC-103H,relative viability,[1]; first compound 0.08 µM,0.805
same,relative viability,[1]; first compound 0.8 µM,0.648
same,relative viability,[1]; first compound 2.53 µM,0.726
same,relative viability,[1]; first compound 8 µM,0.699
same,relative viability,[2]; first compound 0.08 µM,0.783
same,relative viability,[2]; first compound 0.8 µM,0.612
same,relative viability,[2]; first compound 2.53 µM,0.777
same,relative viability,[2]; first compound 8 µM,0.56
same,relative viability,[3]; first compound 0.08 µM,0.52
same,relative viability,[3]; first compound 0.8 µM,0.326
same,relative viability,[3]; first compound 2.53 µM,0.519
same,relative viability,[3]; first compound 8 µM,0.472
same,relative viability,[5]; first compound 0.08 µM,0.641
same,relative viability,[5]; first compound 0.8 µM,0.386
same,relative viability,[5]; first compound 2.53 µM,0.482
same,relative viability,[5]; first compound 8 µM,0.389

# — the supplement of paper PMC10307832
